Laboratory results from ChEMBL document CHEMBL3046860, “Photosynthetic Electron Transport Inhibitory and Herbicidal Activities of 2-(Fluorinated methyl-4-benzylamino-6-methyl)-1, 3, 5-triazines” (J Pestic Sci, 2000).

Experiments:
[1] = test system: Echinochloa oryzicola; test: Pre-emergence herbicidal activity against Echinochloa oryzicola at 400 g a.i./10a measured after 3 weeks by paddy application test; assay type: functional
[2] = test system: Amaranthus blitum subsp. oleraceus; test: Pre-emergence herbicidal activity against Amaranthus blitum subsp. Oleraceus at 400 g a.i./10a measured after 3 weeks by soil application test; assay type: functional
[3] = test system: Digitaria ciliaris; test: Post-emergence herbicidal activity against Digitaria ciliaris at 400 g a.i./10a measured after 3 weeks by foliar application test; assay type: functional
[4] = test system: Persicaria longiseta; test: Post-emergence herbicidal activity against Persicaria longiseta at 400 g a.i./10a measured after 3 weeks by foliar application test; assay type: functional
[5] = test system: Digitaria ciliaris; test: Pre-emergence herbicidal activity against Digitaria ciliaris at 400 g a.i./10a measured after 3 weeks by soil application test; assay type: functional
[6] = test system: Chenopodium album; test: Pre-emergence herbicidal activity against Chenopodium album at 400 g a.i./10a measured after 3 weeks by soil application test; assay type: functional
[7] = test system: Rotala indica; test: Pre-emergence herbicidal activity against Rotala indica at 400 g a.i./10a measured after 3 weeks by paddy application test; assay type: functional
[8] = test system: Echinochloa crus-galli; test: Post-emergence herbicidal activity against Echinochloa crus-galli var. crus-galli at 400 g a.i./10a measured after 3 weeks by foliar application test; assay type: functional
[9] = test system: Pontederia vaginalis; test: Pre-emergence herbicidal activity against Monochoria vaginalis at 400 g a.i./10a measured after 3 weeks by paddy application test; assay type: functional
[10] = test system: Schoenoplectiella juncoides; test: Pre-emergence herbicidal activity against Schoenoplectiella juncoides var. Hotarui Ohwi at 400 g a.i./10a measured after 3 weeks by paddy application test; assay type: functional
[11] = test system: Echinochloa crus-galli; test: Pre-emergence herbicidal activity against Echinochloa crus-galli var. crus-galli at 400 g a.i./10a measured after 3 weeks by soil application test; assay type: functional
[12] = test system: Chenopodium album; test: Post-emergence herbicidal activity against Chenopodium album at 400 g a.i./10a measured after 3 weeks by foliar application test; assay type: functional
[13] = molecular target: Photosystem II D1 protein (psbA) (Spinacia oleracea); test: Inhibition of photosynthetic electron transport activity in Spinacia oleracea thylakoids assessed as inhibition of oxygen release
[14] = test system: Digitaria ciliaris; test: Pre-emergence herbicidal activity against Digitaria ciliaris at 800 g a.i./10a measured after 3 weeks by soil application test; assay type: functional
[15] = test system: Echinochloa crus-galli; test: Pre-emergence herbicidal activity against Echinochloa crus-galli var. crus-galli at 800 g a.i./10a measured after 3 weeks by soil application test; assay type: functional
[16] = test system: Pontederia vaginalis; test: Pre-emergence herbicidal activity against Monochoria vaginalis at 800 g a.i./10a measured after 3 weeks by paddy application test; assay type: functional
[17] = test system: Echinochloa oryzicola; test: Pre-emergence herbicidal activity against Echinochloa oryzicola at 800 g a.i./10a measured after 3 weeks by paddy application test; assay type: functional
[18] = test system: Rotala indica; test: Pre-emergence herbicidal activity against Rotala indica at 800 g a.i./10a measured after 3 weeks by paddy application test; assay type: functional
[19] = test system: Schoenoplectiella juncoides; test: Pre-emergence herbicidal activity against Schoenoplectiella juncoides var. Hotarui Ohwi at 800 g a.i./10a measured after 3 weeks by paddy application test; assay type: functional
[20] = test system: Chenopodium album; test: Pre-emergence herbicidal activity against Chenopodium album at 800 g a.i./10a measured after 3 weeks by soil application test; assay type: functional
[21] = test system: Persicaria longiseta; test: Pre-emergence herbicidal activity against Persicaria longiseta at 400 g a.i./10a measured after 3 weeks by soil application test; assay type: functional
[22] = test system: Amaranthus blitum subsp. oleraceus; test: Pre-emergence herbicidal activity against Amaranthus blitum subsp. Oleraceus at 100 g a.i./10a measured after 3 weeks by soil application test; assay type: functional
[23] = test system: Echinochloa crus-galli; test: Pre-emergence herbicidal activity against Echinochloa crus-galli var. crus-galli at 100 g a.i./10a measured after 3 weeks by soil application test; assay type: functional
[24] = test system: Digitaria ciliaris; test: Pre-emergence herbicidal activity against Digitaria ciliaris at 100 g a.i./10a measured after 3 weeks by soil application test; assay type: functional
[25] = test system: Chenopodium album; test: Pre-emergence herbicidal activity against Chenopodium album at 100 g a.i./10a measured after 3 weeks by soil application test; assay type: functional

| SMILES | Activity [1] [%] | Activity [2] [%] | Activity [3] [%] | Activity [4] [%] | Activity [5] [%] | Activity [6] [%] | Activity [7] [%] | Activity [8] [%] | Activity [9] [%] | Activity [10] [%] | Activity [11] [%] | Activity [12] [%] | Activity [21] [%] | other results |
| --- | --- | --- | --- | --- | --- | --- | --- | --- | --- | --- | --- | --- | --- | --- |
| Cc1nc(NCc2ccc(Br)cc2)nc(C(F)(F)F)n1 | 4 | 5 | 6 | 6 | 5 | 5 | 5 | 4 | 5 | 6 | 5 | 6 | – | – |
| Cc1nc(NCc2cccc(Cl)c2)nc(C(F)(F)F)n1 | – | – | – | – | – | – | – | – | – | – | – | – | – | pI50 [13]: 7.21 |
| Cc1nc(NCc2ccc(Cl)cc2)nc(C(F)(F)F)n1 | 6 | 6 | 6 | 6 | 5 | 5 | 6 | 4 | 6 | 6 | 3 | 6 | – | – |
| Cc1ccc(CNc2nc(C)nc(C(F)(F)F)n2)cc1 | – | – | – | – | – | – | – | – | – | – | – | – | – | pI50 [13]: 6.74 |
| Cc1nc(NCc2ccc([N+](=O)[O-])cc2)nc(C(F)(F)F)n1 | – | – | – | – | – | – | – | – | – | – | – | – | – | pI50 [13]: 7.16 |
| Cc1nc(C)nc(NCc2ccccc2)n1 | – | – | 0 | 0 | – | – | – | 0 | – | – | – | 0 | – | Activity [14]: 0%; Activity [15]: 0%; Activity [16]: 6%; Activity [17]: 3%; Activity [18]: 1%; Activity [19]: 0%; Activity [20]: 0% |
| Cc1nc(NCc2ccccc2)nc(C(F)(F)F)n1 | 3 | 4 | 4 | – | 3 | 6 | 4 | 3 | 6 | 0 | 2 | 6 | – | – |
| Cc1ccc(CNc2nc(C)nc(C(F)F)n2)cc1 | 4 | 4 | 4 | 6 | 4 | 5 | 5 | 4 | 5 | 5 | 3 | 6 | 5 | – |
| Cc1nc(NCc2ccc([N+](=O)[O-])cc2)nc(C(F)F)n1 | 5 | 5 | 5 | 6 | 4 | 5 | 6 | 4 | 5 | 5 | 4 | 6 | 5 | – |
| Cc1nc(CF)nc(NCc2ccccc2)n1 | 0 | 4 | 1 | 4 | 1 | 5 | 0 | 0 | 0 | 0 | 1 | 6 | 2 | – |
| Cc1nc(CF)nc(NCc2ccc(Br)cc2)n1 | 5 | 5 | 5 | 6 | 4 | 5 | 6 | 4 | 5 | 5 | 4 | 6 | 5 | – |
| Cc1nc(CF)nc(NCc2ccc(Cl)cc2)n1 | 5 | 4 | 4 | 6 | 3 | 5 | 6 | 4 | 5 | 4 | 3 | 6 | 4 | – |
| Cc1nc(NCc2ccccc2)nc(C(F)F)n1 | 4 | 4 | 4 | 6 | 4 | 6 | 5 | 3 | 6 | 5 | 5 | 6 | 6 | – |
| Cc1nc(NCc2ccc(Br)cc2)nc(C(F)F)n1 | 6 | 5 | 6 | 6 | 5 | 6 | 6 | 6 | 6 | 6 | 4 | 6 | 6 | – |
| Cc1nc(NCc2ccc(Cl)cc2)nc(C(F)F)n1 | 5 | 5 | 6 | 6 | 5 | 6 | 6 | 6 | 6 | 6 | 4 | 6 | 6 | – |
| Cc1nc(NCc2cccc(Cl)c2)nc(C(F)F)n1 | 4 | 4 | 4 | 6 | 4 | 5 | 5 | 3 | 5 | 5 | 4 | 6 | 5 | – |
| CCNc1nc(Cl)nc(NCC)n1 [SIMAZINE] | – | – | – | – | – | – | – | – | – | – | – | – | – | Activity [22]: 5%; Activity [23]: 2%; Activity [24]: 3%; Activity [25]: 2% |
